Reference: patent US20260092074A1, “Annelated Pyridines as Steroidogenesis Inhibitors, Preparation Method and Use Thereof” (Guangzhou Vinnocent Pharmaceutical Limited, priority 2022, published 2026)

How the values were obtained:
human CYP11B2 = biological target: T1, human CYP11B2 (Homo sapiens, UniProt P19099); assay: Inhibition of hCYP11B2 in transfected V79 cells; format: cell-based; conditions: hamster V79 cells expressing human CYP11B2; substrate 11-deoxycorticosterone 200 nM
T1 construct: expressed in transfected cells
T1 sequence (P19099 25-503): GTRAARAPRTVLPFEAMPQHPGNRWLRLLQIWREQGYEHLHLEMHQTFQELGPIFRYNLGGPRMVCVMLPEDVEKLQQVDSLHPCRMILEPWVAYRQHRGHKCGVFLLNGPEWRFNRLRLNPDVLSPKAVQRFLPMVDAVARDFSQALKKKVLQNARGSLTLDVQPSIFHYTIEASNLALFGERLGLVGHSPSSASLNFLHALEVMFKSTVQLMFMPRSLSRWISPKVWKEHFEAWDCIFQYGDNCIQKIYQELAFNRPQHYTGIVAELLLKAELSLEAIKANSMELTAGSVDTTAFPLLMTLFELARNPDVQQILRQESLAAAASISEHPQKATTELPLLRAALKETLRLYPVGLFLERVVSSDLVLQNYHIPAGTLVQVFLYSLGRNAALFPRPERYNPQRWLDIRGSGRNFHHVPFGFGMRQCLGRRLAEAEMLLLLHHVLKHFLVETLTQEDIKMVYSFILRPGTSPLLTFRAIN
Experimental: (§1) Genes of human CYP11B2 and rat NADPH-P450 reductase were transfected into hamster V79 cells using a lentivirus vector, and stably-expressing cell lines were selected by taking advantages of the associated puromycin-resistance gene. Cultured cells were diluted and seeded in a 96-well plate with an amount of approximately 10,000 per well. After pre-incubation with suitable concentrations of the test compounds for 2 hours, 11-deoxycorticosterone of 200 nM was added as the substrate to initiate the catalytic reaction. After further incubation for 30 minutes, it was quenched with ethyl acetate. Subsequently, the substrate and product(s) were quantified using LC-MS/MS or HPLC at 260 nm, and the IC50 values were calculated according to inhibitory percentage.

human CYP11B1 = biological target: T2, human CYP11B1 (Homo sapiens, UniProt P15538); assay: Inhibition of hCYP11B1 in transfected V79 cells; format: cell-based; conditions: hamster V79 cells expressing human CYP11B1; substrate 11-deoxycortisol 200 nM
T2 construct: expressed in transfected cells
T2 sequence (P15538 25-503): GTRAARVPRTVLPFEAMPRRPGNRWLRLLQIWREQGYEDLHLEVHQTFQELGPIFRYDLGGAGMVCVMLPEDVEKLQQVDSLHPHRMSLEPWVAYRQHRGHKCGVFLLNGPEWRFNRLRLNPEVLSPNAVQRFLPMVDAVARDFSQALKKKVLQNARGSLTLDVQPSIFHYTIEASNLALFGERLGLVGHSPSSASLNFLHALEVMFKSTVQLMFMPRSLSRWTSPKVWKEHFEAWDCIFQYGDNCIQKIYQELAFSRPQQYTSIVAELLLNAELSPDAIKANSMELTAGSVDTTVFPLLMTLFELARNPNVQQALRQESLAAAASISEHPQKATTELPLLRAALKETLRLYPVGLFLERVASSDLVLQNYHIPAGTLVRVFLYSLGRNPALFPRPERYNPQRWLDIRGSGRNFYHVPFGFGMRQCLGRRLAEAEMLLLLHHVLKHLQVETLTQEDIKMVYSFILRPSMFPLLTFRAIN
Experimental: as §1, with “CYP11B1” for “CYP11B2”, “11-deoxycortisol” for “11-deoxycorticosterone”

Structure (SMILES) | IC50 (human CYP11B2) [nM] | IC50 (human CYP11B1) [nM]
Cc1ccc(C(=O)N2CCc3c(-c4ccc(C#N)cc4)cncc32)cc1 [C33, 4-(1-(4-Methylbenzoyl)-2,3-dihydro-1H-pyrrolo[2,3-c]pyridin-4-yl)benzonitrile] | 25 | 245
N#Cc1ccc(-c2cncc3c2CCN3C(=O)c2ccccc2[N+](=O)[O-])cc1 [C35, 4-(1-(2-Nitrobenzoyl)-2,3-dihydro-1H-pyrrolo[2,3-c]pyridin-4-yl)benzonitrile] | 31 | 459
Cc1ccccc1C(=O)N1CCc2c(-c3ccc(C#N)cc3)cncc21 [C36, 4-(1-(2-Methylbenzoyl)-2,3-dihydro-1H-pyrrolo[2,3-c]pyridin-4-yl)benzonitrile] | 28 | 297
N#Cc1ccc(-c2cncc3c2CCN3C(=O)c2cccc(C#N)c2)cc1 [C37, 3-(4-(4-Cyanophenyl)-2,3-dihydro-1H-pyrrolo[2,3-c]pyridine-1-carbonyl)benzonitrile] | 60 | 766
N#Cc1ccc(-c2cncc3c2CCN3C(=O)c2ccc(Cl)cc2)cc1 [C38, 4-(1-(4-Chlorobenzoyl)-2,3-dihydro-1H-pyrrolo[2,3-c]pyridin-4-yl)benzonitrile] | 40 | 606
Cc1cccc(C(=O)N2CCc3c(-c4ccc(C#N)cc4)cncc32)c1 [C40, 4-(1-(3-Methylbenzoyl)-2,3-dihydro-1H-pyrrolo[2,3-c]pyridin-4-yl)benzonitrile] | 29 | 352
N#Cc1ccc(-c2cncc3c2CCN3C(=O)c2ccccc2)cc1 [C41, 4-(1-Benzoyl-2,3-dihydro-1H-pyrrolo[2,3-c]pyridin-4-yl)benzonitrile] | 40 | 353
CC(C)(C)C(=O)N1CCc2c(-c3ccc(C#N)cc3)cncc21 [C42, 4-(1-Pivaloyl-2,3-dihydro-1H-pyrrolo[2,3-c]pyridin-4-yl)benzonitrile] | 45 | 1570
N#Cc1ccc(-c2cncc3c2CCN3C(=O)CCl)cc1 [C43, 4-(1-(2-Chloroacetyl)-2,3-dihydro-1H-pyrrolo[2,3-c]pyridin-4-yl)benzonitrile] | 99 | 897
N#Cc1ccc(-c2cncc3c2CCN3C(=O)c2ccco2)cc1 [C44, 4-(1-(Furan-2-carbonyl)-2,3-dihydro-1H-pyrrolo[2,3-c]pyridin-4-yl)benzonitrile] | 27 | 139
N#Cc1ccc(-c2cncc3c2CCN3C(=O)c2ccc(CBr)cc2)cc1 [C49, 4-(1-(4-(Bromomethyl)benzoyl)-2,3-dihydro-1H-pyrrolo[2,3-c]pyridin-4-yl)benzonitrile] | 25 | 971
O=C(c1ccccc1F)N1CCc2c(-c3ccc4[nH]ncc4c3)cncc21 [C50, (4-(1H-Indazol-5-yl)-2,3-dihydro-1H-pyrrolo[2,3-c]pyridin-1-yl)(2-fluorophenyl)methanone] | 97 | 1270
Cn1ncc2cc(-c3cncc4c3CCN4C(=O)c3ccccc3F)ccc21 [C51, (2-Fluorophenyl)(4-(1-methyl-1H-indazol-5-yl)-2,3-dihydro-1H-pyrrolo[2,3-c]pyridin-1-yl)methanone] | 23 | 4250
O=C(c1ccccc1F)N1CCc2c(-c3cccc(F)c3)cncc21 [C52, (2-fluorophenyl)(4-(3-fluorophenyl)-2,3-dihydro-1H-pyrrolo[2,3-c]pyridin-1-yl)methanone] | 44 | 891
O=C(c1ccccc1F)N1CCc2c(-c3ccc(Cl)cc3)cncc21 [C54, (4-(4-Chlorophenyl)-2,3-dihydro-1H-pyrrolo[2,3-c]pyridin-1-yl)(2-fluorophenyl)methanone] | 45 | 895
N#Cc1cccc(-c2cncc3c2CCN3C(=O)c2ccccc2F)c1 [C55, 3-(1-(2-Fluorobenzoyl)-2,3-dihydro-1H-pyrrolo[2,3-c]pyridin-4-yl)benzonitrile] | 29 | 973
O=C(c1ccccc1F)N1CCc2c(-c3ccoc3)cncc21 [C56, (2-Fluorophenyl)(4-(furan-3-yl)-2,3-dihydro-1H-pyrrolo[2,3-c]pyridin-1-yl)methanone] | 103 | 522
O=C(c1ccccc1F)N1CCc2c(-c3ccc4nccn4c3)cncc21 [C57, (2-Fluorophenyl)(4-(imidazo[1,2-a]pyridin-6-yl)-2,3-dihydro-1H-pyrrolo[2,3-c]pyridin-1-yl)methanone] | 27 | 876
O=C(c1ccccc1F)N1CCc2c(-c3ccc4ncsc4c3)cncc21 [C58, (4-(benzo[d]thiazol-6-yl)-2,3-dihydro-1H-pyrrolo[2,3-c]pyridin-1-yl)(2-fluorophenyl)methanone] | 75 | 2640
O=C(c1ccccc1F)N1CCc2c(-c3cc4ccccc4[nH]3)cncc21 [C59, (4-(1H-indol-2-yl)-2,3-dihydro-1H-pyrrolo[2,3-c]pyridin-1-yl)(2-fluorophenyl)methanone] | 131 | 2740
O=C(c1ccccc1F)N1CCc2c(-c3cc4ccccc4o3)cncc21 [C60, (4-(Benzofuran-2-yl)-2,3-dihydro-1H-pyrrolo[2,3-c]pyridin-1-yl)(2-fluorophenyl)methanone] | 152 | > 10000

Continued by falling IC50 (human CYP11B2), values first:

IC50 (human CYP11B2) [nM] | IC50 (human CYP11B1) [nM] | Structure (SMILES)
23 | 298 | N#Cc1ccc(-c2cncc3c2CCN3C(=O)c2cccc(Cl)c2)cc1 [C39, 4-(1-(3-Chlorobenzoyl)-2,3-dihydro-1H-pyrrolo[2,3-c]pyridin-4-yl)benzonitrile]
22 | 284 | COc1ccccc1C(=O)N1CCc2c(-c3ccc(C#N)cc3)cncc21 [C34, 4-(1-(2-Methoxybenzoyl)-2,3-dihydro-1H-pyrrolo[2,3-c]pyridin-4-yl)benzonitrile]
20 | 152 | Cc1ccsc1C(=O)N1CCc2c(-c3ccc(C#N)cc3)cncc21 [C45, 4-(1-(3-Methylthiophene-2-carbonyl)-2,3-dihydro-1H-pyrrolo[2,3-c]pyridin-4-yl)benzonitrile]
18 | 233 | N#Cc1ccc(-c2cncc3c2CCN3C(=O)c2ccccc2C(F)(F)F)cc1 [C32, 4-(1-(2-(Trifluoromethyl)benzoyl)-2,3-dihydro-1H-pyrrolo[2,3-c]pyridin-4-yl)benzonitrile]
17 | 19 | COC(=O)c1ccc(C(=O)N2CCc3c(-c4ccc(C#N)cc4)cncc32)cc1 [C47]
11 | 472 | N#Cc1ccc(-c2cncc3c2CCN3C(=O)c2ccc([N+](=O)[O-])cc2)cc1 [C30, 4-(1-(4-Nitrobenzoyl)-2,3-dihydro-1H-pyrrolo[2,3-c]pyridin-4-yl)benzonitrile]
11 | 378 | O=C(c1ccccc1F)N1CCc2c(-c3cccc([N+](=O)[O-])c3)cncc21 [C53, (2-Fluorophenyl)(4-(3-nitrophenyl)-2,3-dihydro-1H-pyrrolo[2,3-c]pyridin-1-yl)methanone]
7.3 | 762 | N#Cc1ccc(C(=O)N2CCc3c(-c4ccc(C#N)cc4)cncc32)cc1 [C48, 4-(1-(4-Cyanobenzoyl)-2,3-dihydro-1H-pyrrolo[2,3-c]pyridin-4-yl)benzonitrile]
5.4 | 274 | N#Cc1ccc(-c2cncc3c2CCN3C(=O)c2cccs2)cc1 [C46, 4-(1-(Thiophene-2-carbonyl)-2,3-dihydro-1H-pyrrolo[2,3-c]pyridin-4-yl)benzonitrile]
4.6 | 305 | N#Cc1ccc(-c2cncc3c2CCN3C(=O)c2ccccc2F)cc1 [C31, 4-(1-(2-Fluorobenzoyl)-2,3-dihydro-1H-pyrrolo[2,3-c]pyridin-4-yl)benzonitrile]
